US11691962B2 (eXIthera Pharmaceuticals, Inc., priority 2018, dated 2023)

Target: Factor XIa (Homo sapiens (Human), UniProt P03951)
Assay: Factor XIa enzyme inhibition assay (dose response, fluorogenic AMC substrate)
Assay type: biochemical
Settings: read-out: hFXIa IC50
Description: • Assay buffer: 20 mM Hepes, pH 7.4; 150 mM NaCl; 0.02% Tween 20 • Compounds: 10 mM stocks in DMSO • Substrate: 20 mM Glp-Pro-Arg-AMC, 25 mg/2.3 mL H2O (store at +4° C.) [Factor XIa, thrombin, and trypsin] • 20 mM Pro-Phe-Arg-AMC (Bachem I-1295), 25 mg/2.2 mL H2O • or Boc-Leu-Gly-Arg-AMC (Bachem I-1105), 25 mg/2.07 mL H2O • (store at +4° C.) [Factor Xa] • Enzyme: Factor XIa; 0.25 μM in 50% glycerol (20 μg/mL) • Trypsin; 0.2 μM in 50% glycerol (4.8 μg/mL) • Thrombin; 0.2 μM in 50% glycerol (7.34 μg/mL) • Factor Xa; 0.2 μM in 50% glycerol (9.2 μg/mL) • These stocks are aliquoted (˜100 μL/aliquot) and stored at −20° C. Methods: • 1. Dilute the substrate to 100 μM in assay buffer (30 μL/6 mL). The enzyme is diluted to 0.5 nM just prior to use (12 μL/6 mL for Factor XIa; 15 μL/6 mL for all of the rest.) • 2. Pipette 50 μL of substrate into each well of the 96 well (12×8) microtiter plate. (Column 1 is used as the 100% activity control and receives no compound, and Column 12 is the blank and receives no enzyme.) Add an additional 46 μL to column 2. • 3. Pipette 4 μL of each compound into the appropriate well in column 2 of the plate (unknowns assayed in triplicate, standard assayed in duplicate). The final compound concentration will be […] of the stock. • 4. Serially two-fold dilute the compound by mixing the sample in column 2, removing 50 μL to the next well (column 3), mix and remove to column 4, etc. until column 11. After mixing column 11, remove 50 μL and discard. • 5. Pipette 50 μL of buffer into column 12. Initiate the reaction by adding 50 μL of enzyme solution to each well of columns 1-11 as rapidly as possible. • 6. Read the plate in a spectrophotometer (SpectraMax) at 30° C., wherein each well is measured every 60 s for 30 min. For Factor Xa assays, each well is measured every 1 min for a total of 60 min. • 7. For Factor XIa assays, the compounds are assayed, in duplicate, at 3 different starting concentrations, 20, 2, and 0.2 μM; 1:10, 1:100, and 1:1000 dilution of 10 mM stock or at 2, 0.2, and 0.02 μM; 1:100, 1:1000, and 1:10,000 dilution of 10 mM stock. Data for each concentration are combined for graphing and data fitting. • 8. Data can be used both for estimation of IC50 and for estimation of Kon.
Potential inhibitors of Factor XIa were evaluated using the following assay.
PyroGlu-Pro-Arg-7-methylaminocourin (AMC), available from CPC Scientific, Inc., is based on the substrate pyro-Glu-Pro-Arg-pNA (S-2366), available from Diapharma Group, Inc. (Columbus, Ohio), wherein the p-nitroanaline group is replaced with 7-methylaminocoumarin (AMC).
The final concentration of the substrate in the assay was 50 μM, and the final concentration of the enzyme was 0.25 nM. Inhibitors were tested by serial dilution over an appropriate range to yield a dose response curve for determination of the inhibitors' IC50 value. The assay mixture was read every minute for 30 minutes in order to generate progress curves. The plates were read in a Spectramax m5 Multimode Plate Reader (Molecular Devices LLC, Sunnyvale, Calif.). Dose response curves were fit to Equation 1 below in which A is the maximum inhibition, B is the minimum inhibition, C is the IC50, and D is the Hill coefficient. Y=[(A−B)/(1+(X/C)^D)]+B (Equation 1)

Factor XIa, sequence (P03951 388-625): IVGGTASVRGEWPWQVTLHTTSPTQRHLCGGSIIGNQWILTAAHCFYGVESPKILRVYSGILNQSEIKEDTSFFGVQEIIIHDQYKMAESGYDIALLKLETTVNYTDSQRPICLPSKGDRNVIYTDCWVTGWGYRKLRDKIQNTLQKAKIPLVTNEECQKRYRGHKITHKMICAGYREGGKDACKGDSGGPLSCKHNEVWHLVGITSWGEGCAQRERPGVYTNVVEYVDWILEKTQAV
Factor XIa, sequence (P03951 19-387 partner): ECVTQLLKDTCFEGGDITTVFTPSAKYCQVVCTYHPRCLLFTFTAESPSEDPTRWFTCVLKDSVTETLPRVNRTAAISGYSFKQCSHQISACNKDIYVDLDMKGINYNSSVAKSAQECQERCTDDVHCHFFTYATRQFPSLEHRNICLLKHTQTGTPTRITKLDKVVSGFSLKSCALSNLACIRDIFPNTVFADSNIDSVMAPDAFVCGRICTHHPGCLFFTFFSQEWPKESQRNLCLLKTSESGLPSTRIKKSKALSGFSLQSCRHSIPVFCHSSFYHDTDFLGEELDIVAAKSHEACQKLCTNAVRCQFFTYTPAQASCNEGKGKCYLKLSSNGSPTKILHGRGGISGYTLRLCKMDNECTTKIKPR

Compound | IC50
CC[C@@H](NC(=O)N1C(=O)[C@H](Cc2ccnc(N)c2)[C@H]1C(=O)N(C)c1nccn1C)c1ccc(F)c(C)c1C [Compound 1-211, (2S,3R)-3-((2-aminopyridin-4-yl)methyl)-N2-(1-methyl-1H-imidazol-2-yl)-N1-((R)-1-(2,3-dimethyl-4-fluorophenyl)propyl)-N2-methyl-4-oxoazetidine-1,2-dicarboxamide] | < 10 nM
CC[C@@H](NC(=O)N1C(=O)[C@H](Cc2cc(C)nc(N)c2)[C@H]1C(=O)N(C)c1nncs1)c1ccccc1 [Compound 1-186, (2S,3R)-3-((2-amino-6-methylpyridin-4-yl)methyl)-N2-(1,3,4-thiadiazol-2-yl)-N1-((R)-1-phenylpropyl)-N2-methyl-4-oxoazetidine-1,2-dicarboxamide] | < 10 nM
CC[C@@H](NC(=O)N1C(=O)[C@H](Cc2ccnc(N)c2)[C@H]1C(=O)N(C)c1nncs1)c1ccccc1 [Compound 1-168, (2S,3R)-3-((2-aminopyridin-4-yl)methyl)-N2-(1,3,4-thiadiazol-2-yl)-N1-((R)-1-phenylpropyl)-N2-methyl-4-oxoazetidine-1,2-dicarboxamide] | < 10 nM
CCNc1cc(C[C@H]2C(=O)N(C(=O)N[C@H](CC)c3cccc(Cl)c3)[C@@H]2C(=O)N(C)c2ccn(C)n2)ccn1 [Compound 1-39, (2S,3R)-3-((2-ethylaminopyridin-4-yl)methyl)-N2-(1-methyl-1H-pyrazol-3-yl)-N1-((R)-1-(3-chlorophenyl)propyl)-N2-methyl-4-oxoazetidine-1,2-dicarboxamide] | 10 to 100 nM
CC[C@@H](NC(=O)N1C(=O)[C@H](Cc2ccnc(N)c2)[C@H]1C(=O)N(C)c1cccs1)c1ccn(C)n1 [Compound 1-49, (2S,3R)-3-((2-aminopyridin-4-yl)methyl)-N2-(thiophen-2-yl)-N1-((R)-1-(1-methyl-1H-pyrazol-3-yl)propyl)-N2-methyl-4-oxoazetidine-1,2-dicarboxamide] | 10 to 100 nM
CC[C@@H](NC(=O)N1C(=O)[C@H](Cc2cc(C)nc(N)c2)[C@H]1C(=O)N(C)c1ccnn1C)c1cc(C)ccc1C [Compound 1-166, (2S,3R)-3-((2-amino-6-methylpyridin-4-yl)methyl)-N2-(1-methyl-1H-pyrazol-5-yl)-N1-((R)-1-(2,5-dimethylphenyl)propyl)-N2-methyl-4-oxoazetidine-1,2-dicarboxamide] | < 10 nM
CC[C@@H](NC(=O)N1C(=O)[C@H](Cc2cc(C)nc(N)c2)[C@H]1C(=O)N(C)c1cnn(C)c1)c1ccc(F)cc1F [Compound 1-188, (2S,3R)-3-((2-amino-6-methylpyridin-4-yl)methyl)-N2-(1-methyl-1H-pyrazol-4-yl)-N1-((R)-1-(2,4-difluorophenyl)propyl)-N2-methyl-4-oxoazetidine-1,2-dicarboxamide] | 10 to 100 nM
CC[C@@H](NC(=O)N1C(=O)[C@H](Cc2ccnc(N)c2)[C@H]1C(=O)N(C)c1cnn(C)c1)c1ccc(F)c(C)c1F [Compound 1-207, (2S,3R)-3-((2-aminopyridin-4-yl)methyl)-N2-(1-methyl-1H-pyrazol-4-yl)-N1-((R)-1-(2,4-difluoro-3-methylphenyl)propyl)-N2-methyl-4-oxoazetidine-1,2-dicarboxamide] | < 10 nM
CN(C(=O)[C@@H]1[C@@H](Cc2ccnc(N)c2)C(=O)N1C(=O)NC(C1CCCCC1)C(F)(F)F)c1ccnn1C (stereo in doubt) [Compound 1-6, (2S,3R)-3-((2-aminopyridin-4-yl)methyl)-N2-(1-methyl-1H-pyrazol-5-yl)-N1-((R)-1-cyclohexyl-2,2,2-trifluoroethyl)-N2-methyl-4-oxoazetidine-1,2-dicarboxamide] | 10 to 100 nM
CN(C(=O)[C@@H]1[C@@H](Cc2ccnc(N)c2)C(=O)N1C(=O)NCc1cccc(Cl)c1)c1cccs1 [Compound 1-29, (2S,3R)-3-((2-aminopyridin-4-yl)methyl)-N2-(thiophen-2-yl)-N1-((3-chlorophenyl)methyl)-N2-methyl-4-oxoazetidine-1,2-dicarboxamide] | 10 to 100 nM
CC[C@@H](NC(=O)N1C(=O)[C@H](Cc2cc(C)nc(N)c2)[C@H]1C(=O)N(C)c1ccnn1C)c1ccc(Cl)cc1 [Compound 1-157, (2S,3R)-3-((2-amino-6-methylpyridin-4-yl)methyl)-N2-(1-methyl-1H-pyrazol-5-yl)-N1-((R)-1-(4-chlorophenyl)propyl)-N2-methyl-4-oxoazetidine-1,2-dicarboxamide] | 10 to 100 nM
CC[C@H](NC(=O)N1C(=O)[C@H](Cc2ccnc(N)c2)[C@H]1C(=O)N(C)c1ccn(C)n1)c1cccc(Cl)c1 [Compound 1-93, (2S,3R)-3-((2-aminopyridin-4-yl)methyl)-N2-(1-methyl-1H-pyrazol-3-yl)-N1-((S)-1-(3-chlorophenyl)propyl)-N2-methyl-4-oxoazetidine-1,2-dicarboxamide] | 10 to 100 nM
CC[C@@H](NC(=O)N1C(=O)[C@H](Cc2ccnc(N)c2)[C@H]1C(=O)N(C)c1nccn1C)C1CCCCO1 (stereo partly drawn) [Compound 1-121, (2S,3R)-3-((2-aminopyridin-4-yl)methyl)-N2-(1-methyl-1H-imidazol-2-yl)-N1-((R)-1-(oxan-2-yl)propyl)-N2-methyl-4-oxoazetidine-1,2-dicarboxamide] | 10 to 100 nM
CC[C@@H](NC(=O)N1C(=O)[C@H](Cc2ccnc(N)c2)[C@H]1C(=O)N(C)c1ccn(C)n1)c1ccc(C)nc1 [Compound 1-20, (2S,3R)-3-((2-aminopyridin-4-yl)methyl)-N2-(1-methyl-1H-pyrazol-3-yl)-N1-((R)-1-(6-methylpyridin-3-yl)propyl)-N2-methyl-4-oxoazetidine-1,2-dicarboxamide] | < 10 nM
CC[C@@H](NC(=O)N1C(=O)[C@H](Cc2ccnc(N)c2)[C@H]1C(=O)N(C)c1ccn(C)n1)c1ccccc1C [Compound 1-130, (2S,3R)-3-((2-aminopyridin-4-yl)methyl)-N2-(1-methyl-1H-pyrazol-3-yl)-N1-((R)-1-(2-methylphenyl)propyl)-N2-methyl-4-oxoazetidine-1,2-dicarboxamide] | < 10 nM
CC[C@@H](NC(=O)N1C(=O)[C@H](Cc2cc(C)nc(N)c2)[C@H]1C(=O)N(C)c1cnn(C)c1)c1ccc(F)cc1C [Compound 1-180, (2S,3R)-3-((2-amino-6-methylpyridin-4-yl)methyl)-N2-(1-methyl-1H-pyrazol-4-yl)-N1-((R)-1-(4-fluoro-2-methylphenyl)propyl)-N2-methyl-4-oxoazetidine-1,2-dicarboxamide] | 10 to 100 nM
CC[C@@H](NC(=O)N1C(=O)[C@H](Cc2ccnc(N)c2)[C@H]1C(=O)N(C)c1nccn1C)c1ccc(C)c(F)c1C [Compound 1-196, (2S,3R)-3-((2-aminopyridin-4-yl)methyl)-N2-(1-methyl-1H-imidazol-2-yl)-N1-((R)-1-(2,4-dimethyl-3-fluorophenyl)propyl)-N2-methyl-4-oxoazetidine-1,2-dicarboxamide] | < 10 nM
CC[C@@H](NC(=O)N1C(=O)[C@H](Cc2ccnc(N)c2)[C@H]1C(=O)N(C)c1ccn(C)n1)c1ccccc1F [Compound 1-133, (2S,3R)-3-((2-aminopyridin-4-yl)methyl)-N2-(1-methyl-1H-pyrazol-3-yl)-N1-((R)-1-(2-fluorophenyl)propyl)-N2-methyl-4-oxoazetidine-1,2-dicarboxamide] | 10 to 100 nM
CC[C@@H](NC(=O)N1C(=O)[C@H](Cc2cc(C)nc(NC)c2)[C@H]1C(=O)N(C)c1ccnn1C)c1ccccc1 [Compound 1-61, (2S,3R)-3-((2-methylamino-6-methylpyridin-4-yl)methyl)-N2-(1-methyl-1H-pyrazol-5-yl)-N1-((R)-1-phenylpropyl)-N2-methyl-4-oxoazetidine-1,2-dicarboxamide] | 10 to 100 nM
